Key:
[1] = molecular target: T1, full-length human CSNK1A1 (Homo sapiens, UniProt P48729); assay: CSNK1A1 Assay 2 (ADP-Glo, 1 μM ATP, substrate biotin-Ahx-KRRRAL-pS-VASLPGL); assay type: biochemical; settings: Table 3, read-out: CSNK1A1 Assay 2 IC50 [mol/l] (median)
T1 construct: N-terminal Glutathion-S-Transferase (GST) and full-length human CSNK1A1; purchased Life Technologies PV4174; host or cells: baculovirus infected insect cells
Summary of the method: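 GST-tagged full-length human CSNK1A1 from baculovirus-infected insect cells (about 0.0375 ng/μL), preincubated 15 min at 22 °C with compound in HEPES pH 7.5 buffer, with 1 μM ATP and biotin-Ahx-KRRRAL-pS-VASLPGL substrate. ADP formed read by ADP-Glo luminescence.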

[2] = molecular target: T2, full-length human CSNK1D (Homo sapiens, UniProt P48730); assay: CSNK1D Assay (ADP-Glo, 1 μM ATP); assay type: biochemical; settings: Table 3, read-out: CSNK1D IC50 [mol/l] (median)
T2 construct: N-terminal Glutathion-S-Transferase (GST) and full-length human CSNK1D; purchased Life Technologies PV3665; host or cells: baculovirus infected insect cells
Protocol: CSNK1D-inhibitory activity of compounds of the present invention in presence of 1 μM adenosine-tri-phosphate (ATP) was quantified employing the CSNK1 D assay as described in the following paragraphs. In essence, the enzyme activity is measured by quantification of the adenosine-di-phosphate (ADP), which is generated as a co-product of the enzyme reaction, via the “ADP-Glo™ Kinase Assay” kit from the company Promega. This detection system works as follows: In a first step the ATP not consumed in the kinase reaction is quantitatively converted to cAMP employing an adenylate cyclase (“ADP-Glo-reagent”), then the adenylate cyclase is stopped and the ADP generated in the kinase reaction converted to ATP which generates in a luciferase-based reaction a glow-luminescence signal (“Kinase Detection Reagent”).
Recombinant fusion protein of N-terminal Glutathion-S-Transferase (GST) and full-length human CSNK1D, expressed by baculovirus infected insect cells and purified via Glutathion affinity chromatography, was purchased from Life Technologies (product no. PV3665) and used as enzyme. As substrate for the kinase reaction the biotinylated peptide Btn-Ahx-[…] (C-terminus in amide form) was used which can be purchased e.g. from the company Biosyntan (Berlin-Buch, Germany).
For the assay 50 nl of a 100 fold concentrated solution of the test compound in DMSO was pipetted into a white 1536-well microtiter plate (Greiner Bio-One, Frickenhausen, Germany), 2 μL of a solution of CSNK1D in aqueous assay buffer [50 mM HEPES pH 7.5, 10% (v/v) glycerol, 10 mM MgCl2, 50 mM NaCl, 1 mM dithiothreitol, 0.01% (w/v) bovine serum albumin, 0.01% (v/v) Triton X-100] were added and the mixture was incubated for 15 min at 22° C. to allow pre-binding of the test compounds to the enzyme before the start of the kinase reaction. […] The concentration of CSNK1D was adjusted depending of the activity of the enzyme lot and was chosen appropriate to have the assay in the linear range, a typical concentration is about 0.5 ng/μL. The reaction was stopped by the addition of 2.5 μL of “ADP-Glo-reagent” (1:1.5 fold diluted with water) and the resulting mixture was incubated at 22° C. for 1 h to convert the ATP not consumed in the kinase reaction completely […]. Subsequently 2.5 μL of the “kinase detection reagent” (1.2 fold more concentrated than recommended by the producer) were added, the resulting mixture was incubated at 22° C. for 1 h and then the luminescence measured with a suitable measurement instrument (e.g. Viewlux™ from Perkin-Elmer). The amount of emitted light was taken as a measure for the amount of ADP generated and thereby for the activity of the CSNK1D.

T2 sequence (P48730 whole entry): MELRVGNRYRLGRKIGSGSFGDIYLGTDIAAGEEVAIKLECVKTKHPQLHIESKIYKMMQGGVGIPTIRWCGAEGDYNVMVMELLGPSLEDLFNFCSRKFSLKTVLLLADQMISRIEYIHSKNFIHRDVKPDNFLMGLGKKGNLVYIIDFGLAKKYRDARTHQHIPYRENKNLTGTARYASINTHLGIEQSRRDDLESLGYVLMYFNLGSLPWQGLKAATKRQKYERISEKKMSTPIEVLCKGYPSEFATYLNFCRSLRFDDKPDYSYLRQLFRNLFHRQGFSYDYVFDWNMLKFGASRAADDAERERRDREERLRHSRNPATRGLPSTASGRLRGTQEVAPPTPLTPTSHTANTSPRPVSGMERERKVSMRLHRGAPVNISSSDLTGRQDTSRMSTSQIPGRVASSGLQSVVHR
T1 sequence (P48729 whole entry): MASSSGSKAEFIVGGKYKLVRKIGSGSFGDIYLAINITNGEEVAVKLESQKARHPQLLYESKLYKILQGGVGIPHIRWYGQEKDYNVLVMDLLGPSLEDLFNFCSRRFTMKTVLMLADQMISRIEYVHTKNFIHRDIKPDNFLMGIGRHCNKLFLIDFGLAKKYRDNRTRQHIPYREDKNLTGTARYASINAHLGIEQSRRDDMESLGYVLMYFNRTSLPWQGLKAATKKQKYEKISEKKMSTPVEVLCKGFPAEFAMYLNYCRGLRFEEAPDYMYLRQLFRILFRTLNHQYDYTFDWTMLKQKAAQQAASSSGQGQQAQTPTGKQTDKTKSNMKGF

Row | SMILES | IC50 [1] | IC50 [2]
1 | Cc1cc2[nH]c(-c3ccnc(NC(=O)C(CC(F)F)c4ccc(F)cc4)c3)c(-c3ccccn3)c2nc1F (racemic) [Example 33, (rac)-4,4-difluoro-N-{4-[5-fluoro-6-methyl-3-(pyridin-2-yl)-1H-pyrrolo[3,2-b]pyridin-2-yl]pyridin-2-yl}-2-(4-fluorophenyl)butanamide] | 19.5 nM | 37.3 nM
2 | Cc1cc(F)nc2c(-c3ccccn3)c(-c3ccnc(NC(=O)C(CC(F)F)c4ccc(F)cc4)c3)[nH]c12 (racemic) [Example 36, (rac)-4,4-difluoro-N-{4-[5-fluoro-7-methyl-3-(pyridin-2-yl)-1H-pyrrolo[3,2-b]pyridin-2-yl]pyridin-2-yl}-2-(4-fluorophenyl)butanamide] | 21.4 nM | 41.9 nM
3 | COc1cc(F)nc2c(-c3ccccn3)c(-c3ccnc(NC(=O)C(CC(F)F)c4ccc(F)cc4)c3)[nH]c12 (racemic) [Example 39, (rac)-4,4-difluoro-N-{4-[5-fluoro-7-methoxy-3-(pyridin-2-yl)-1H-pyrrolo[3,2-b]pyridin-2-yl]pyridin-2-yl}-2-(4-fluorophenyl)butanamide] | 19 nM | 40.2 nM
4 | O=C(Nc1cc(-c2[nH]c3c(OC4CC4)cc(F)nc3c2-c2ccccn2)ccn1)C(CC(F)F)c1ccc(F)cc1 (racemic) [Example 42, (rac)-N-{4-[7-(cyclopropyloxy)-5-fluoro-3-(pyridin-2-yl)-1H-pyrrolo[3,2-b]pyridin-2-yl]pyridin-2-yl}-4,4-difluoro-2-(4-fluorophenyl)butanamide] | 8.22 nM | 14.4 nM
5 | O=C(Nc1cc(-c2[nH]c3c(CC4CC4)cc(F)nc3c2-c2ccccn2)ccn1)C(CC(F)F)c1ccc(F)cc1 (racemic) [Example 46, (2RS)—N-{4-[7-(cyclopropylmethyl)-5-fluoro-3-(pyridin-2-yl)-1H-pyrrolo[3,2-b]pyridin-2-yl]pyridin-2-yl}-4,4-difluoro-2-(4-fluorophenyl)butanamide] | 23.2 nM | 19.2 nM
6 | O=C(Nc1cc(-c2[nH]c3c(Cl)ccnc3c2-c2ccccn2)ccn1)C(CC(F)F)c1ccc(F)cc1 (racemic) [Example 49, (2RS)—N-{4-[7-chloro-3-(pyridin-2-yl)-1H-pyrrolo[3,2-b]pyridin-2-yl]pyridin-2-yl}-4,4-difluoro-2-(4-fluorophenyl)butanamide] | 3.64 nM | 7.69 nM
7 | O=C(Nc1cc(-c2[nH]c3ccc(F)nc3c2-c2cc(F)ccn2)ccn1)C(CC(F)F)c1ccc(F)cc1 (racemic) [Example 95, (2RS)-4,4-difluoro-N-{4-[5-fluoro-3-(4-fluoropyridin-2-yl)-1H-pyrrolo[3,2-b]pyridin-2-yl]pyridin-2-yl}-2-(4-fluorophenyl)butanamide] | 5.62 nM | 10.5 nM
8 | CC(C)(O)c1cc(F)nc2c(-c3ccccn3)c(-c3ccnc(NC(=O)C(CC(F)F)c4ccc(F)cc4)c3)[nH]c12 (racemic) [Example 98, (2RS)-4,4-difluoro-N-{4-[5-fluoro-7-(2-hydroxypropan-2-yl)-3-(pyridin-2-yl)-1H-pyrrolo[3,2-b]pyridin-2-yl]pyridin-2-yl}-2-(4-fluorophenyl)butanamide] | 7.36 nM | 6.84 nM
9 | O=C(Nc1cc(-c2[nH]c3cccnc3c2-c2ncccn2)ccn1)C(CC(F)F)c1ccc(F)cc1 (racemic) [Example 112, (2RS)-4,4-difluoro-2-(4-fluorophenyl)-N-[4-(3-pyrimidin-2-yl-1H-pyrrolo[3,2-b]pyridin-2-yl)-2-pyridyl]butanamide] | 10.1 nM | 16.9 nM
10 | O=C(Nc1cc(-c2[nH]c3c(C4CCCO4)cc(F)nc3c2-c2ccccn2)ccn1)C(CC(F)F)c1ccc(F)cc1 (racemic) [Example 114, (2RS)-4,4-difluoro-2-(4-fluorophenyl)-N-(4-{5-fluoro-3-(pyridin-2-yl)-7-[(2RS)-tetrahydrofuran-2-yl]-1H-pyrrolo[3,2-b]pyridin-2-yl}pyridin-2-yl)butanamide] | 6.74 nM | 8.03 nM
11 | O=C(Nc1cc(-c2[nH]c3nccnc3c2-c2ccccn2)ccn1)C(CC(F)(F)F)c1ccc(F)cc1 (racemic) [Example 119, (2RS)-4,4,4-trifluoro-2-(4-fluorophenyl)-N-{4-[7-(pyridin-2-yl)-5H-pyrrolo[2,3-b]pyrazin-6-yl]pyridin-2-yl}butanamide] | 2.71 nM | 7.07 nM
12 | O=C(Nc1cc(-c2[nH]c3c(OCC(F)(F)F)ncnc3c2-c2ccccn2)ccn1)C(CC(F)F)c1ccc(F)cc1 (racemic) [Example 122, (2RS)-4,4-difluoro-2-(4-fluorophenyl)-N-{4-[7-(pyridin-2-yl)-4-(2,2,2-trifluoroethoxy)-5H-pyrrolo[3,2-d]pyrimidin-6-yl]pyridin-2-yl}butanamide] | 7.69 nM | 7.04 nM
13 | O=C(Nc1cc(-c2[nH]c3c(OCC(F)(F)F)ncnc3c2-c2ccccn2)ccn1)C(CC(F)(F)F)c1ccc(F)cc1 (racemic) [Example 125, (2RS)-4,4,4-trifluoro-2-(4-fluorophenyl)-N-{4-[7-(pyridin-2-yl)-4-(2,2,2-trifluoroethoxy)-5H-pyrrolo[3,2-d]pyrimidin-6-yl]pyridin-2-yl}butanamide] | 14.8 nM | 14.2 nM
14 | O=C(Nc1cc(-c2[nH]c3c(OCC4CC4)ncnc3c2-c2ccccn2)ccn1)C(CC(F)F)c1ccc(F)cc1 (racemic) [Example 128, (2RS)—N-{4-[4-(cyclopropylmethoxy)-7-(pyridin-2-yl)-5H-pyrrolo[3,2-d]pyrimidin-6-yl]pyridin-2-yl}-4,4-difluoro-2-(4-fluorophenyl)butanamide] | 8.03 nM | 8.51 nM
15 | O=C(Nc1cc(-c2[nH]c3ccc(F)nc3c2-c2ccccn2)ccn1)[C@H](CC(F)F)c1ccc(F)cc1 (single isomer, unassigned) [Example 3] | 9.21 nM | 20.1 nM
16 | Cc1ccc2[nH]c(-c3ccnc(NC(=O)C(CC(F)F)c4ccc(F)cc4)c3)c(-c3ccccn3)c2n1 (single isomer, unassigned) [Example 5, 4,4-difluoro-2-(4-fluorophenyl)-N-{4-[5-methyl-3-(pyridin-2-yl)-1H-pyrrolo[3,2-b]pyridin-2-yl]pyridin-2-yl}butanamide] | 4.43 nM | 7.13 nM
17 | Cc1ccc2[nH]c(-c3ccnc(NC(=O)C(CC(F)F)c4ccc(F)cc4)c3)c(-c3ccccn3)c2n1 (single isomer, unassigned) [Example 6, 4,4-difluoro-2-(4-fluorophenyl)-N-{4-[5-methyl-3-(pyridin-2-yl)-1H-pyrrolo[3,2-b]pyridin-2-yl]pyridin-2-yl}butanamide] | 68.2 nM | 89.7 nM
18 | Cc1cnc2c(-c3ccccn3)c(-c3ccnc(NC(=O)C(CC(F)F)c4ccc(F)cc4)c3)[nH]c2c1 (single isomer, unassigned) [Example 8, 4,4-difluoro-2-(4-fluorophenyl)-N-{4-[6-methyl-3-(pyridin-2-yl)-1H-pyrrolo[3,2-b]pyridin-2-yl]pyridin-2-yl}butanamide] | 3.01 nM | 4.01 nM
19 | Cc1cnc2c(-c3ccccn3)c(-c3ccnc(NC(=O)C(CC(F)F)c4ccc(F)cc4)c3)[nH]c2c1 (single isomer, unassigned) [Example 9, 4,4-difluoro-2-(4-fluorophenyl)-N-{4-[6-methyl-3-(pyridin-2-yl)-1H-pyrrolo[3,2-b]pyridin-2-yl]pyridin-2-yl}butanamide] | 15.8 nM | 32.8 nM
20 | O=C(Nc1cc(-c2[nH]c3c(OCC(F)F)cc(F)nc3c2-c2ccccn2)ccn1)C(CC(F)F)c1ccc(F)cc1 (single isomer, unassigned) [Example 29, (2R or S)—N-{4-[7-(2,2-difluoroethoxy)-5-fluoro-3-(pyridin-2-yl)-1H-pyrrolo[3,2-b]pyridin-2-yl]pyridin-2-yl}-4,4-difluoro-2-(4-fluorophenyl)butanamide] | 3.31 nM | 2.32 nM
